Assay results as given in patent US5126337A, “Thiazetoquinoline-3-carboxylic acid derivative and a pharmaceutical composition comprising the same” (priority 1989, dated 1992).

System: Male mice of ddY strain
Test: Convulsion inducing activity in combination with fenbufen
Details: 30 min after fenbufen 100 mg/kg orally
Experimental: Male mice of ddY strain, 5 weeks old, were used. Fenbufen suspended in 0.5% carboxymethyl cellulose was administered orally at a dose of 100 mg/kg. After thirty minutes, test compounds suspended in 0.5% carboxymethyl cellulose were injected intraperitoneally (i.p.) at a dose of 100 mg/kg or 300 mg/kg.

SMILES	Number of convulsion induced/Number of animals (100 mg/kg (i.p.))	Number of convulsion induced/Number of animals (300 mg/kg (i.p.))
CC1Sc2c(C(=O)O)c(=O)c3cc(F)c(N4CCNCC4)c(F)c3n21 (stereo not drawn) [Reference Drug C, 6,8-difluoro-1-methyl-4-oxo-7-(1-piperazinyl)-1H,4H-[1,3]thiazeto[3,2-a]quinoline-3-carboxylic acid, reference compound]	6/6	–
CC1Sc2c(C(=O)O)c(=O)c3cc(F)c(N4CCC(N)C4)cc3n21 (stereo not drawn) [Reference Drug D, 7-(3-amino-1-pyrrolidinyl)-6-fluoro-1-methyl-4-oxo-1H,4H-[1,3]thiazeto[3,2-a]quinoline-3-carboxylic acid, reference compound]	0/6	0/6
